# Measurements published in US20250250230A1, “HETEROCYCLIC COMPOUND” (TAKEDA PHARMACEUTICAL COMPANY LIMITED, priority 2022, published 2025).
# Molecular target: T1, human orexin type 2 receptor (Homo sapiens, UniProt O43614)
# T1 construct: expressed in transfected cells
# T1 sequence (O43614 1-444): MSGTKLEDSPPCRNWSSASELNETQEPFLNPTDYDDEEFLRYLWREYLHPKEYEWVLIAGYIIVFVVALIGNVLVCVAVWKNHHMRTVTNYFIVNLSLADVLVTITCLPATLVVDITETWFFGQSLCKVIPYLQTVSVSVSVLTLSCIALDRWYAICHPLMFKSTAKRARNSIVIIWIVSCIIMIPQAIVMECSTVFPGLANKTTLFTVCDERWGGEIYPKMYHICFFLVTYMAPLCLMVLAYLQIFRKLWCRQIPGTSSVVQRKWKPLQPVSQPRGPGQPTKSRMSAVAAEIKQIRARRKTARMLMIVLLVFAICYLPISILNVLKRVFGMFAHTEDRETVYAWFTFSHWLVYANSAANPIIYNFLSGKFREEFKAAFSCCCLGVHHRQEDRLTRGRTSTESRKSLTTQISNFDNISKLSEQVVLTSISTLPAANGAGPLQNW
# Test: Measurement of orexin type 2 receptor agonist activity (calcium fluorescence, Fluo-4 AM, FDSS)
# Format: cell-based
# Details: test compound 3 μM; CHO cells expressing human OX2 receptor; DMSO = 0%, orexin A (human) = 100%
# Method in brief: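 CHO-K1 cells stably expressing human OX2R were loaded with Fluo-4 AM (30 min 37 °C, 30 min RT) in HEPES-buffered HBSS with 0.1% BSA and probenecid. Calcium fluorescence was followed on FDSS for 2 min after compound addition; activity normalised to DMSO (0%) and 10 nM orexin A (100%).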
row,SMILES,"OX2R agonist activity (3 μM, %) [%]"
1,"CS(=O)(=O)NC[C@@H]1[C@H](F)CN1C(=O)C1(CC#N)CC1c1ccccc1-c1c(F)cccc1F (stereo partly drawn) [Example 428, N-({(2R,3R)-1-[(1R,2R)-1-(cyanomethyl)-2-(2′,6′-difluoro[1,1′-biphenyl]-2-yl)cyclopropane-1-carbonyl]-3-fluoroazetidin-2-yl}methyl)methanesulfonamide, or N-({(2R,3R)-1-[(1S,2S)-1-(cyanomethyl)-2-(2′,6′-difluoro[1,1′-biphenyl]-2-yl)cyclopropane-1-carbonyl]-3-fluoroazetidin-2-yl}methyl)methanesulfonamide]",53
2,"O=C([C@@H]1C[C@@]1(F)c1ccc(F)cc1-c1c(F)cccc1F)N1C[C@@H](F)[C@H]1CNS(=O)(=O)C1CC1 [Example 429, N-({(2R,3R)-3-fluoro-1-[(1S,2S)-2-fluoro-2-(2′,5,6′-trifluoro[1,1′-biphenyl]-2-yl)cyclopropane-1-carbonyl]azetidin-2-yl}methyl)cyclopropanesulfonamide]",99
3,"O=C([C@@H]1C[C@@]1(F)c1ccc(F)cc1-c1c(F)cccc1F)N1C[C@@H](F)[C@H]1CNS(=O)(=O)CF [Example 430, 1-fluoro-N-({(2R,3R)-3-fluoro-1-[(1S,2S)-2-fluoro-2-(2′,5,6′-trifluoro[1,1′-biphenyl]-2-yl)cyclopropane-1-carbonyl]azetidin-2-yl}methyl)methanesulfonamide]",92
4,"O=C([C@@H]1C[C@@]1(F)c1ccc(F)cc1-c1c(F)cccc1F)N1C[C@@H](F)[C@H]1CNS(=O)(=O)CBr [Example 431, 1-bromo-N-({(2R,3R)-3-fluoro-1-[(1S,2S)-2-fluoro-2-(2′,5,6′-trifluoro[1,1′-biphenyl]-2-yl)cyclopropane-1-carbonyl]azetidin-2-yl}methyl)methanesulfonamide]",95
5,"CCCS(=O)(=O)NC[C@@H]1[C@H](F)CN1C(=O)[C@@H]1C[C@@]1(F)c1ccc(F)cc1-c1c(F)cccc1F [Example 433, N-({(2R,3R)-3-fluoro-1-[(1S,2S)-2-fluoro-2-(2′,5,6′-trifluoro[1,1′-biphenyl]-2-yl)cyclopropane-1-carbonyl]azetidin-2-yl}methyl)propane-1-sulfonamide]",95
6,"CS(=O)(=O)NC[C@@H]1CCN1C(=O)C1(CO)CC1c1ccc(F)cc1-c1c(F)cccc1F (stereo partly drawn) [Example 434, N-({(2S)-1-[(1R,2S)-1-(hydroxymethyl)-2-(2′,5,6′-trifluoro[1,1′-biphenyl]-2-yl)cyclopropane-1-carbonyl]azetidin-2-yl}methyl)methanesulfonamide, or N-({(2S)-1-[(1S,2R)-1-(hydroxymethyl)-2-(2′,5,6′-trifluoro[1,1′-biphenyl]-2-yl)cyclopropane-1-carbonyl]azetidin-2-yl}methyl)methanesulfonamide]",96
7,"COCC1(C(=O)N2CC[C@H]2CNS(C)(=O)=O)CC1c1ccc(F)cc1-c1c(F)cccc1F (stereo partly drawn) [Example 435, N-({(2S)-1-[(1R,2S)-1-(methoxymethyl)-2-(2′,5,6′-trifluoro[1,1′-biphenyl]-2-yl)cyclopropane-1-carbonyl]azetidin-2-yl}methyl)methanesulfonamide, or N-({(2S)-1-[(1S,2R)-1-(methoxymethyl)-2-(2′,5,6′-trifluoro[1,1′-biphenyl]-2-yl)cyclopropane-1-carbonyl]azetidin-2-yl}methyl)methanesulfonamide]",101
8,"COCC1(C(=O)N2C[C@@H](F)[C@H]2CNS(C)(=O)=O)CC1c1ccc(F)cc1-c1c(F)cccc1F (stereo partly drawn) [Example 436, N-({(2R,3R)-3-fluoro-1-[(1R,2S)-1-(methoxymethyl)-2-(2′,5,6′-trifluoro[1,1′-biphenyl]-2-yl)cyclopropane-1-carbonyl]azetidin-2-yl}methyl)methanesulfonamide, or N-({(2R,3R)-3-fluoro-1-[(1S,2R)-1-(methoxymethyl)-2-(2′,5,6′-trifluoro[1,1′-biphenyl]-2-yl)cyclopropane-1-carbonyl]azetidin-2-yl}methyl)methanesulfonamide]",99
9,"CCS(=O)(=O)NC[C@@H]1[C@H](F)CN1C(=O)C1(COC)CC1c1ccc(F)cc1-c1c(F)cccc1F (stereo partly drawn) [Example 437, N-({(2R,3R)-3-fluoro-1-[(1R,2S)-1-(methoxymethyl)-2-(2′,5,6′-trifluoro[1,1′-biphenyl]-2-yl)cyclopropane-1-carbonyl]azetidin-2-yl}methyl)ethanesulfonamide, or N-({(2R,3R)-3-fluoro-1-[(1S,2R)-1-(methoxymethyl)-2-(2′,5,6′-trifluoro[1,1′-biphenyl]-2-yl)cyclopropane-1-carbonyl]azetidin-2-yl}methyl)ethanesulfonamide]",99
10,"CNS(=O)(=O)NC[C@@H]1[C@H](F)CN1C(=O)C1(COC)CC1c1ccc(F)cc1-c1c(F)cccc1F (stereo partly drawn) [Example 438, N-({(2R,3R)-3-fluoro-1-[(1R,2S)-1-(methoxymethyl)-2-(2′,5,6′-trifluoro[1,1′-biphenyl]-2-yl)cyclopropane-1-carbonyl]azetidin-2-yl}methyl)-N′-methylsulfuric diamide, or N-({(2R,3R)-3-fluoro-1-[(1S,2R)-1-(methoxymethyl)-2-(2′,5,6′-trifluoro[1,1′-biphenyl]-2-yl)cyclopropane-1-carbonyl]azetidin-2-yl}methyl)-N′-methylsulfuric diamide]",101
11,"CCS(=O)(=O)NC[C@@H]1[C@H](F)CN1C(=O)C1CC1(F)c1ccc(F)cc1-c1ccccc1Cl (stereo partly drawn) [Example 440, N-({(2R,3R)-1-[(1R,2R)-2-(2′-chloro-5-fluoro[1,1′-biphenyl]-2-yl)-2-fluorocyclopropane-1-carbonyl]-3-fluoroazetidin-2-yl}methyl)ethanesulfonamide, or N-({(2R,3R)-1-[(1S,2S)-2-(2′-chloro-5-fluoro[1,1′-biphenyl]-2-yl)-2-fluorocyclopropane-1-carbonyl]-3-fluoroazetidin-2-yl}methyl)ethanesulfonamide]",91
12,"CCS(=O)(=O)NC[C@@H]1[C@H](F)CN1C(=O)C1CC1(F)c1ccccc1-c1ccccc1Cl (stereo partly drawn) [Example 441, N-({(2R,3R)-1-[(1R,2R)-2-(2′-chloro[1,1′-biphenyl]-2-yl)-2-fluorocyclopropane-1-carbonyl]-3-fluoroazetidin-2-yl}methyl)ethanesulfonamide, or N-({(2R,3R)-1-[(1S,2S)-2-(2′-chloro[1,1′-biphenyl]-2-yl)-2-fluorocyclopropane-1-carbonyl]-3-fluoroazetidin-2-yl}methyl)ethanesulfonamide]",90
13,"CCS(=O)(=O)NC[C@@H]1[C@H](F)CN1C(=O)C1CC1(F)c1ccccc1-c1ccccc1F (stereo partly drawn) [Example 442, N-({(2R,3R)-3-fluoro-1-[(1R,2R)-2-fluoro-2-(2′-fluoro[1,1′-biphenyl]-2-yl)cyclopropane-1-carbonyl]azetidin-2-yl}methyl)ethanesulfonamide, or N-({(2R,3R)-3-fluoro-1-[(1S,2S)-2-fluoro-2-(2′-fluoro[1,1′-biphenyl]-2-yl)cyclopropane-1-carbonyl]azetidin-2-yl}methyl)ethanesulfonamide]",100
